Results on 65 compounds are retold here after PubChem BioAssay AID743339 (Broad Institute, 2014).

Calls of active or inactive are those of the source.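 The calls were made as follows: active = activation curve crossing 200% at or below the highest valid dose tested for that sample; inconclusive = flat curve with activation between 30 and 70%, or poor fit; inactive = the rest, including signal falling instead of rising.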

In the first assay the target is Leucyl-cystinyl aminopeptidase (Mus musculus) (UniProt Q8C129). Kind of assay: activation of mouse IRAP aminopeptidase activity – biochemical, Leu-AMC fluorescence, cherry-picked samples, selectivity assay for ERAP1 modulator project, dose response (AID 743339). The following applies: purified IRAP, Leu-AMC cleavage fluorescence, 1 h.
Sequence of Leucyl-cystinyl aminopeptidase (Mus musculus) (Q8C129 whole entry, looked up): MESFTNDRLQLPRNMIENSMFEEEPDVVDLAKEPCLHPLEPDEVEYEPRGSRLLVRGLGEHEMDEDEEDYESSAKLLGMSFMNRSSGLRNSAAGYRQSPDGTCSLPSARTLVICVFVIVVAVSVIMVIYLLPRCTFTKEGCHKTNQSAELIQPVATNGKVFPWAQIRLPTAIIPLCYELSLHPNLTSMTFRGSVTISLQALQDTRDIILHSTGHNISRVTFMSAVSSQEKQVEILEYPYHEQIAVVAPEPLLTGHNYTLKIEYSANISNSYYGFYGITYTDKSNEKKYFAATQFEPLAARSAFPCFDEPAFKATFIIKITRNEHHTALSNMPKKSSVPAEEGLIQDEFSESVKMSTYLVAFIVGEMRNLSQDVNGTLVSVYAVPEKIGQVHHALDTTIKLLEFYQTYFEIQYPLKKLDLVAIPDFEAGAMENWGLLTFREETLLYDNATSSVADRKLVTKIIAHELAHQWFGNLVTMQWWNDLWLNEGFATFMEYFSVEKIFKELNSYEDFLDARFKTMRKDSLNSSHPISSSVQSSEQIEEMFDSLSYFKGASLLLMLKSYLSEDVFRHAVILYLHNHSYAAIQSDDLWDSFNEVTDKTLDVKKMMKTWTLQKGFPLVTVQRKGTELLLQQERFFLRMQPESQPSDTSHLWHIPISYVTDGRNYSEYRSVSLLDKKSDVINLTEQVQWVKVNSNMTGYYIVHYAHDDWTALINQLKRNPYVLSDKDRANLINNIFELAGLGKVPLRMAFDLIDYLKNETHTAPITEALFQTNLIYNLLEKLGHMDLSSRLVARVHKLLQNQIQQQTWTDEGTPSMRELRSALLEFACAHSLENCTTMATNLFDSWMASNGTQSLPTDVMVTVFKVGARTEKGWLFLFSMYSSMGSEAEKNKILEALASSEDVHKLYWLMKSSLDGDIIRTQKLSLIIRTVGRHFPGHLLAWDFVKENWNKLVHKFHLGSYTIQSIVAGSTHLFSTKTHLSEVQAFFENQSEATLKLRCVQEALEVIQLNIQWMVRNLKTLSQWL
Consider `CCNC(=O)[C@@H]1[C@@H](CO)[C@@H]2Cn3c(ccc(/C=C/c4ccccc4)c3=O)[C@H]1N2C(=O)C1CCCC1`, for which the AC200 is 824 nM.
In the case of `CCN1[C@@H]2c3ccc(/C=C/c4ccccc4)c(=O)n3C[C@H]1[C@H](CO)[C@H]2C(=O)N1CCOCC1`, the AC200 is 2310 nM.
For the compound `COc1ccc(C2=NN(c3ccc(C(=O)O)cc3)C(c3ccc(OC)c(OC)c3)C2)cc1` (stereo not given), the AC200 is 824 nM.
In the case of `Cc1c(CC(=O)N2CCN(C(=O)C3COc4ccccc4O3)CC2)c(=O)oc2cc(O)c(Cl)cc12` (stereo not given), the AC200 is 661 nM.
On the same count and under the same terms, as for `O=c1oc2c(CN3CCN(CCO)CC3)c(O)ccc2cc1-c1ccccn1`, the figure is 275 nM.
Regarding `Cc1c(O)ccc2cc(S(=O)(=O)c3ccccc3)c(=O)oc12`, the AC200 is 439 nM.
For `CCNC(=O)[C@H]1[C@H](CO)[C@H]2Cn3c(ccc(/C=C/c4ccccc4)c3=O)[C@@H]1N2C(=O)C1CCCC1`, the AC200 is 675 nM.
Same read-out and setting: as for `Cc1c(C)c2ccc(O)c(CN3CCCC3)c2oc1=O`, the figure is 1040 nM; as for `CCCN1[C@@H]2Cn3c(ccc(/C=C/c4ccccc4)c3=O)[C@H]1[C@@H](C(=O)NCc1ccccn1)[C@@H]2CO`, 992 nM.
The same measure, in the same setting: as for `CCCN1[C@@H]2c3ccc(/C=C/c4ccccc4)c(=O)n3C[C@H]1[C@H](CO)[C@H]2C(=O)NCc1ccccn1`, the figure is 1000 nM; as for `CC(=O)N1[C@@H]2c3ccc(/C=C/c4ccccc4)c(=O)n3C[C@H]1[C@H](CO)[C@H]2C(=O)N(C)C`, 906 nM; as for `Cc1cc(=O)oc2cc(OCC(=O)N3CCN(C(C)c4ccccc4)CC3)c(Cl)cc12` (stereo not given), 1980 nM.
In the case of `O=c1ccc2cc(O[C@@H]3O[C@H](CO)[C@@H](O)[C@H](O)[C@H]3O)c(O)cc2o1`, the AC200 was 307 nM.
As for `COc1cccc(CN(C)Cc2cc(=O)oc3cc(O)c(Cl)cc23)c1`, the AC200 was 793 nM.
With `Cc1cc(=O)oc2c(CN3CCCCC3)c(O)ccc12`, the AC200 was 988 nM.
For `N#Cc1c(N)n(CCNC(=O)c2ccccc2)c2nc3ccccc3nc12`, the AC200 is > 2600 nM (inactive).
As for `O=c1oc2cc(O)ccc2cc1S(=O)(=O)c1ccccc1`, the AC200 is 351 nM.
Take `COc1cc2ccc(=O)oc2cc1O`: the AC200 is 348 nM.
On the same count and under the same terms, as for `CC(=O)Oc1cc2oc(=O)cc(C)c2cc1Cl`, the figure is 507 nM; as for `COC(=O)Cc1c(C)c2ccc(O)c(CNCc3ccc(OC)c(OC)c3)c2oc1=O`, 535 nM; as for `O=c1cc(CN2CCN(Cc3ccccc3)CC2)c2ccc(O)cc2o1`, 1470 nM.
Still for that read-out and setting: as for `Cc1ccc2nc3c(cc(C(=O)NCc4ccccc4)c(=N)n3CCCn3ccnc3)c(=O)n2c1`, the figure is 2010 nM; as for `O=S(=O)(O)c1ccc(N2N=C(c3ccccc3)CC2c2ccccc2)cc1` (stereo not given), 1010 nM; as for `Cc1ccc(S(=O)(=O)c2cc3ccc(O)cc3oc2=O)cc1C`, 362 nM.
Still for that read-out and setting: as for `Cc1c(C)c2ccc(O)c(CN3CCN(C)CC3)c2oc1=O`, the figure is 1510 nM.
Turning to `Cc1c(-c2ccccc2)c(=O)oc2cc(O)ccc12`, the AC200 is 1240 nM.
The same measure, in the same setting: as for `CN1[C@@H]2Cn3c(ccc(/C=C/c4ccccc4)c3=O)[C@H]1[C@@H](C(=O)NC1CCCC1)[C@@H]2CO`, the figure is 983 nM.

The assay is the same for the next values; noted with them: purified IRAP, Leu-AMC cleavage fluorescence, 1 h; at 2.6 µM (top of the series).
Take `COc1cc2cc(C(=O)N3CCN(Cc4ccc5c(c4)OCO5)CC3)c(=O)oc2cc1OC`: the activation was 150% (inactive).

Still in this assay, the particulars now being: purified IRAP, Leu-AMC cleavage fluorescence, 1 h; at 5 µM (top of the series).
For `CCCN(C)C[C@@H]1OCCCC[C@@H](C)Oc2ccc(NS(=O)(=O)c3ccc(C)cc3)cc2C(=O)N([C@@H](C)CO)C[C@@H]1C`, the activation is 0.889% (inactive).

Still in this assay, the particulars now being: purified IRAP, Leu-AMC cleavage fluorescence, 1 h; at 5.6 µM (top of the series).
Regarding `COc1ccc(S(=O)(=O)N(C)C[C@@H]2Oc3ncccc3C(=O)N([C@H](C)CO)C[C@@H]2C)cc1`, the activation was 9.5% (inactive).

The assay is the same for the next values; noted with them: purified IRAP, Leu-AMC cleavage fluorescence, 1 h; at 10 µM (top of the series).
Turning to `CCCN(C)C[C@@H]1OCCCC[C@@H](C)Oc2ccc(NS(=O)(=O)c3ccc(C)cc3)cc2C(=O)N([C@H](C)CO)C[C@@H]1C`, the activation is -8.1% (inactive).
The same measure, in the same setting: as for `CCCN(C)C[C@@H]1OCCCC[C@@H](C)Oc2ccc(NS(=O)(=O)c3c(C)noc3C)cc2C(=O)N([C@H](C)CO)C[C@@H]1C`, the figure is -22.5% (inactive).

The same assay, now with this note: purified IRAP, Leu-AMC cleavage fluorescence, 1 h; at 11 µM (top of the series).
`C[C@@H]1CCCCO[C@H](CN(C)Cc2ccccc2)[C@H](C)CN([C@H](C)CO)C(=O)c2cc(NS(=O)(=O)c3ccccc3)ccc2O1`: the activation is -9.37% (inactive).
Same read-out and setting: as for `CCn1cc(CN2CCCC(C(=O)Nc3ccc(-c4nc5ccccc5[nH]4)cc3)C2)c(C)n1` (stereo not given), the figure is -5.33% (inactive); as for `C[C@@H]1CN([C@H](C)CO)C(=O)c2cccc(NC(=O)Nc3ccccc3)c2O[C@@H]1CN(C)Cc1ccc(C(=O)O)cc1`, 17.7% (inactive).
For the compound `C[C@@H]1CCCCO[C@@H](CN(C)C)[C@@H](C)CN([C@@H](C)CO)C(=O)c2cc(NS(=O)(=O)c3ccc(Cl)cc3)ccc2O1`, the activation is -6.93% (inactive).
Still for that read-out and setting: as for `C[C@@H]1CCCCO[C@H](CN(C)Cc2ccc(C(=O)O)cc2)[C@H](C)CN([C@@H](C)CO)C(=O)c2cc(NC(=O)Nc3ccc(C(F)(F)F)cc3)ccc2O1`, the figure is 11.1% (inactive); as for `CCCNC(=O)C[C@H]1CC[C@@H]2[C@H](COC[C@H](O)CN2C(=O)Nc2cccc(Cl)c2)O1`, 24.9% (inactive).
Same read-out and setting: as for `C[C@H]1CN([C@@H](C)CO)C(=O)c2cccc(NC(=O)Nc3ccc(F)cc3)c2O[C@@H]1CN(C)C(=O)Nc1ccc2c(c1)OCO2`, the figure is 21.6% (inactive); as for `COc1ccc(CN(C)C[C@@H]2OCCCC[C@@H](C)Oc3ccc(NS(=O)(=O)c4cccs4)cc3C(=O)N([C@@H](C)CO)C[C@H]2C)cc1`, -1.66% (inactive); as for `Cc1ccc(S(=O)(=O)Nc2ccc3c(c2)C(=O)N([C@@H](C)CO)C[C@H](C)[C@H](CN(C)C)OCCCC[C@@H](C)O3)cc1`, 8.57% (inactive).
`Cc1noc(C)c1S(=O)(=O)Nc1ccc2c(c1)C(=O)N([C@H](C)CO)C[C@@H](C)[C@@H](CN(C)CC1CCCCC1)OCCCC[C@@H](C)O2`: the activation is 2.83% (inactive).
Turning to `O=C(O)c1ccccc1NS(=O)(=O)c1cccc(-n2sc3ccccc3c2=O)c1`, the activation is -25.6% (inactive).
On the same count and under the same terms, as for `CCCN(C)C[C@@H]1OCCCC[C@@H](C)Oc2ccc(NS(=O)(=O)c3cccs3)cc2C(=O)N([C@H](C)CO)C[C@@H]1C`, the figure is -6.14% (inactive).
The same measure, in the same setting: as for `CO[C@@H]1CN(C)C(=O)c2ccc(NC(=O)Nc3cccc(Cl)c3)cc2OC[C@@H](C)NC[C@H]1C`, the figure is 15.1% (inactive); as for `O=C(CSc1cn[nH]n1)Nc1cccc(C(=O)O)c1`, 17.4% (inactive); as for `COc1ccc(NC(=O)Nc2ccc3c(c2)C(=O)N([C@@H](C)CO)C[C@@H](C)[C@H](CN(C)Cc2ccc(C(=O)O)cc2)OCCCC[C@H](C)O3)cc1`, 58.5% (inactive).
As for `COC(=O)[C@H]1[C@H](CO)[C@H]2Cn3c(ccc(-c4ccncc4)c3=O)[C@H]2N1Cc1ccccc1F`, the activation is 19% (inactive).
In the case of `C[C@@H]1CCCCO[C@@H](CN(C)Cc2ccc(C(=O)O)cc2)[C@H](C)CN([C@@H](C)CO)C(=O)c2cc(NS(=O)(=O)c3ccc(Cl)cc3)ccc2O1`, the activation was -3.97% (inactive).
Consider `Cc1noc(C)c1NC(=O)Nc1ccc2c(c1)C(=O)N([C@H](C)CO)C[C@@H](C)[C@@H](CN(C)Cc1ccc(C(F)(F)F)cc1)OCCCC[C@@H](C)O2`, for which the activation is -4.93% (inactive).
Still for that read-out and setting: as for `C[C@@H]1CCCCO[C@@H](CN(C)CC2CC2)[C@@H](C)CN([C@H](C)CO)C(=O)c2cc(NS(=O)(=O)c3cccs3)ccc2O1`, the figure is 11.9% (inactive).
In the case of `COc1ccc(NC(=O)Nc2ccc3c(c2)C(=O)N([C@H](C)CO)C[C@@H](C)[C@@H](CN(C)Cc2ccc(C(=O)O)cc2)OCCCC[C@@H](C)O3)cc1`, the activation is -5.71% (inactive).
The same measure, in the same setting: as for `COc1ccc(C(=O)O)cc1S(=O)(=O)Nc1cc(C(F)(F)F)ccc1N1CCCCC1`, the figure is 18.7% (inactive); as for `COc1ccc(CN(C)C[C@@H]2OCCCC[C@H](C)Oc3ccc(NS(=O)(=O)c4cccs4)cc3C(=O)N([C@H](C)CO)C[C@@H]2C)cc1`, -13.3% (inactive); as for `CNC[C@H]1OCCCC[C@@H](C)Oc2ccc(NS(=O)(=O)c3ccc(C)cc3)cc2C(=O)N([C@@H](C)CO)C[C@H]1C`, -8.83% (inactive).
For the compound `Cc1ccccc1-c1ccc2c(c1)O[C@@H](CN(C)Cc1ccc(C(=O)O)cc1)[C@@H](C)CN([C@@H](C)CO)S2(=O)=O`, the activation is 4.16% (inactive).
Same read-out and setting: as for `C[C@@H]1CCCCO[C@@H](CN(C)C)[C@@H](C)CN([C@@H](C)CO)C(=O)c2cc(NS(=O)(=O)c3ccc(F)cc3)ccc2O1`, the figure is -0.129% (inactive).
Still for that read-out and setting: as for `COc1ccc(CN(C)C[C@@H]2OCCCC[C@H](C)Oc3ccc(NS(=O)(=O)c4cccs4)cc3C(=O)N([C@@H](C)CO)C[C@@H]2C)cc1`, the figure is 10.9% (inactive); as for `CCN(CCCl)c1cc(CN(C)C)cc(NC(=O)c2ccc(C(=O)Nc3cc(CN(C)C)cc(N(CC)CCCl)c3)cc2)c1`, -21% (inactive).
As for `N#Cc1c(N2CCNCC2)nc(-c2ccco2)c2c1CCCC2`, the activation was 56.4% (inactive).
Turning to `C[C@H](CO)N1C[C@H](C)[C@H](CN(C)CC2CCCCC2)Oc2c(NC(=O)Nc3ccc(C(F)(F)F)cc3)cccc2C1=O`, the activation is 12.3% (inactive).
The same measure, in the same setting: as for `CCCN(C)C[C@@H]1OCCCC[C@@H](C)Oc2ccc(NS(=O)(=O)c3ccc(F)cc3)cc2C(=O)N([C@H](C)CO)C[C@@H]1C`, the figure is -17.1% (inactive); as for `COc1ccc(CN(C)C[C@H]2OCCCC[C@@H](C)Oc3ccc(NS(=O)(=O)c4cccs4)cc3C(=O)N([C@@H](C)CO)C[C@@H]2C)cc1`, 24.3% (inactive).
For the compound `COc1ccc(NC(=O)Nc2cccc3c2O[C@H](CN(C)Cc2ccc(C(=O)O)cc2)[C@H](C)CN([C@H](C)CO)C3=O)cc1`, the activation was 8.21% (inactive).
Same read-out and setting: as for `COc1ccc(CN(C)C[C@@H]2OCCCC[C@@H](C)Oc3ccc(NS(=O)(=O)c4cccs4)cc3C(=O)N([C@H](C)CO)C[C@H]2C)cc1`, the figure is 3.48% (inactive).
